Results on six compounds are retold here after ChEMBL document CHEMBL1201862, “PubChem BioAssay data set” (2004).

Some test systems named below: T47D; HOP-92; KM12; NCI-H522; U-251; NCI-H226; M14; HL-60; OVCAR-5; RXF 393; RPMI-8226; HT-29; SN12C; ACHN; MOLT-4; UACC-62; HCT-15; SF-295; SF-268; TK-10.
Assay in all cases: inhibition of tumour cell growth, NCI panel, 48 h

Structures are written as SMILES.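 Compound exposure: 48 hours, 5 concentrations, 96-well plates. GI50 is the concentration that inhibits growth by half.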 Active and inactive are the calls of the source. Rule as the data show it: active = GI50 up to about 1.1 µM and inactive = higher.

Consider `C#C[C@]1(O)CC[C@H]2[C@@H]3CCC4=C/C(=N\OCCN5CCCC5)CC[C@]4(C)[C@H]3CC[C@@]21C`, for which the GI50 was 16.1 µM (inactive) in the test with T47D; 29.1 µM (inactive) with HOP-92; 5.36 µM (inactive) with KM12; 3.57 µM (inactive) in the test on NCI-H522; 17.3 µM (inactive) in the test on U-251; 20.6 µM (inactive) with NCI-H226. Moreover, the GI50 in the test on M14 was 9.82 µM (inactive); with HL-60 it was 5.35 µM (inactive); in the test on OVCAR-5, 19.2 µM (inactive); in the test on RXF 393 it was 13.5 µM (inactive); in the test on RPMI-8226, 3.34 µM (inactive); with HT-29, 12.7 µM (inactive). The GI50 in the test with SN12C was 16.7 µM (inactive); in the test with ACHN, 17 µM (inactive); with MOLT-4, 6.14 µM (inactive); in the test on UACC-62 it was 10.4 µM (inactive); in the test on HCT-15, 13.2 µM; in the test with SF-295, 3.72 µM (inactive). In addition, the GI50 in the test on SF-268 was 13.5 µM (inactive); in the test with TK-10 it was 17.1 µM (inactive).
Consider `COc1cc2c3cc1Oc1c(OC)c(OC)cc4c1C(=NCC4)Cc1ccc(cc1)Oc1cc(ccc1O)C[C@H]3N(C)CC2`, for which the GI50 in the test with T47D was 21 µM (inactive); in the test with HOP-92 it was 13.6 µM (inactive); in the test with KM12, 15 µM (inactive); in the test on NCI-H522 it was 10.7 µM (inactive); in the test with U-251 it was 17.4 µM (inactive); in the test on NCI-H226, 22.6 µM (inactive). Also, the GI50 is 16.3 µM (inactive) in the test on M14; 14 µM (inactive) in the test with HL-60; 45.6 µM (inactive) in the test on OVCAR-5; 10 µM (inactive) in the test on RXF 393; 16.3 µM (inactive) in the test on RPMI-8226; 10.8 µM (inactive) in the test on HT-29. Besides, the GI50 in the test with SN12C was 22.9 µM (inactive); in the test with ACHN, 23.1 µM (inactive); with MOLT-4, 11.9 µM (inactive); with UACC-62, 16.7 µM (inactive); in the test on HCT-15, 12.2 µM; with SF-295, 19.4 µM (inactive). Besides, the GI50 was 22.6 µM (inactive) in the test with SF-268 and 20.6 µM (inactive) in the test on TK-10.
`C#CCn1c(=O)c(Cl)cn(/C(=C/C(=O)OCC)C(=O)OCC)c1=O`: the GI50 is 2.34 µM (inactive) in the test on T47D; 9.77 µM (inactive) with HOP-92; 31.9 µM (inactive) in the test with KM12; 3.38 µM (inactive) in the test with NCI-H522; 17.7 µM (inactive) in the test with U-251; > 43.1 µM (inactive) with NCI-H226. The GI50 was 6.98 µM (inactive) in the test with M14; 3.05 µM (inactive) in the test with HL-60; 16.9 µM (inactive) in the test with OVCAR-5; 2.12 µM (inactive) in the test on RXF 393; 1.91 µM (inactive) with RPMI-8226; 18.4 µM (inactive) in the test on HT-29. The GI50 with SN12C is 22.4 µM (inactive); with ACHN, 2.03 µM (inactive); in the test with MOLT-4, 2.28 µM (inactive); in the test on UACC-62, 15.8 µM (inactive); with HCT-15 it was 6.79 µM; in the test with SF-295 it was > 47.5 µM (inactive). Further, the GI50 in the test with SF-268 was 27.9 µM (inactive); with TK-10, 2.43 µM (inactive).
With `COc1c(O)c(O)c2c(c1O)C(=O)c1cc(C)cc(O)c1C2=O`, the GI50 was 24.8 µM (inactive) in the test on T47D; 92 µM (inactive) in the test with HOP-92; 35.2 µM (inactive) with KM12; 6.07 µM (inactive) in the test on NCI-H522; 50.4 µM (inactive) with U-251; 20 µM (inactive) with NCI-H226. Further, the GI50 with M14 was 22.8 µM (inactive); in the test on HL-60 it was 50 µM (inactive); in the test on OVCAR-5, 43 µM (inactive); in the test on RXF 393, > 70.8 µM (inactive); with RPMI-8226, 35.2 µM (inactive); in the test on HT-29 it was 24.4 µM (inactive). Moreover, the GI50 with SN12C is 50.7 µM (inactive); in the test with ACHN, 40.3 µM (inactive); in the test with MOLT-4, 15.4 µM (inactive); in the test on UACC-62, 15.3 µM (inactive); in the test with HCT-15 it was 14.1 µM; with SF-295, 21.9 µM (inactive). Besides, the GI50 with SF-268 was 30.2 µM (inactive); in the test with TK-10 it was 49.3 µM (inactive).
For the compound `NC(Cn1ccc(=O)c(O)c1)C(=O)O` (stereo not given) [MIMOSINE], the GI50 in the test on T47D, with HOP-92, in the test with KM12, with NCI-H522, in the test on U-251 and with NCI-H226 was > 100 µM (inactive) in each case. Also, the GI50 in the test with M14 was > 100 µM (inactive); in the test with HL-60, 81.5 µM (inactive); in the test with OVCAR-5, > 100 µM (inactive); in the test with RXF 393, > 100 µM (inactive); with RPMI-8226, > 100 µM (inactive); with HT-29, > 100 µM (inactive). Further, the GI50 was > 100 µM (inactive) in the test with SN12C; > 100 µM (inactive) in the test on ACHN; 72.6 µM (inactive) in the test with MOLT-4; > 100 µM (inactive) in the test on UACC-62; greater than 100 µM with HCT-15; > 100 µM (inactive) in the test with SF-295. In addition, the GI50 in the test on SF-268 and in the test on TK-10 was > 100 µM (inactive) throughout.
With `Cc1ccc2nc3sc(=O)sc3nc2c1` [CHINOMETHIONAT], the GI50 in the test on T47D was 83.6 µM (inactive); in the test with HOP-92, 15.5 µM (inactive); in the test with KM12, 15.6 µM (inactive); in the test with NCI-H522, 17.5 µM (inactive); in the test with U-251 it was 17.1 µM (inactive); in the test with NCI-H226, 14.3 µM (inactive). In addition, the GI50 was 16.9 µM (inactive) in the test on M14; 16.6 µM (inactive) with HL-60; 16.7 µM (inactive) in the test with OVCAR-5; 18.1 µM (inactive) in the test with RXF 393; 19.5 µM (inactive) in the test on RPMI-8226; 17.1 µM (inactive) in the test on HT-29. Moreover, the GI50 was 15.5 µM (inactive) with SN12C; 15.2 µM (inactive) with ACHN; 15.2 µM (inactive) in the test on MOLT-4; 17.9 µM (inactive) with UACC-62; 15.3 µM with HCT-15; 16.6 µM (inactive) in the test with SF-295. The GI50 with SF-268 and in the test on TK-10 was 16.4 µM (inactive) in each case.
